Data reported in PubChem BioAssay (NCI).
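Briefly, cells in 96-well plates were exposed to five compound concentrations for 48 h, and endpoints were estimated by linear interpolation. Abbreviation: GI50, concentration required for 50% inhibition of growth. TGI marks complete inhibition of growth.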

Tests used:
Assay in all cases: inhibition of tumour cell growth, NCI panel, 48 h
786-0 renal = system: 786-0 renal
A498 renal = system: A498 renal
A549 NSCLC = system: A549 NSCLC
ACHN renal = system: ACHN renal
CAKI-1 renal = system: CAKI-1 renal
CCRF-CEM leukemia = system: CCRF-CEM leukemia
COLO 205 colon = system: COLO 205 colon
DU-145 prostate = system: DU-145 prostate
EKVX NSCLC = system: EKVX NSCLC
HCC-2998 colon = system: HCC-2998 colon
HCT-116 colon = system: HCT-116 colon
HCT-15 colon = system: HCT-15 colon
HL-60(TB) leukemia = system: HL-60(TB) leukemia
HOP-62 NSCLC = system: HOP-62 NSCLC
HOP-92 NSCLC = system: HOP-92 NSCLC
HS 578T breast = system: HS 578T breast
IGROV1 ovarian = system: IGROV1 ovarian
K-562 leukemia = system: K-562 leukemia
KM12 colon = system: KM12 colon
LOX IMVI melanoma = system: LOX IMVI melanoma
M14 melanoma = system: M14 melanoma
MALME-3M melanoma = system: MALME-3M melanoma
MCF7 breast = system: MCF7 breast
MDA-MB-231 breast = system: MDA-MB-231 breast
MDA-MB-435 = system: MDA-MB-435
MOLT-4 leukemia = system: MOLT-4 leukemia
NCI-H226 lung = system: NCI-H226 lung
NCI-H23 lung = system: NCI-H23 lung
NCI-H460 lung = system: NCI-H460 lung
NCI/ADR-RES ovarian = system: NCI/ADR-RES ovarian
OVCAR-3 ovarian = system: OVCAR-3 ovarian
OVCAR-4 ovarian = system: OVCAR-4 ovarian
OVCAR-5 ovarian = system: OVCAR-5 ovarian
OVCAR-8 ovarian = system: OVCAR-8 ovarian
PC-3 prostate = system: PC-3 prostate
RPMI-8226 leukemia = system: RPMI-8226 leukemia
RXF 393 renal = system: RXF 393 renal
SF-268 CNS = system: SF-268 CNS
SF-295 CNS = system: SF-295 CNS
SF-539 CNS = system: SF-539 CNS
SK-MEL-28 melanoma = system: SK-MEL-28 melanoma
SK-MEL-5 melanoma = system: SK-MEL-5 melanoma
SK-OV-3 ovarian = system: SK-OV-3 ovarian
SNB-19 CNS = system: SNB-19 CNS
SNB-75 CNS = system: SNB-75 CNS
SR leukemia = system: SR leukemia
SW-620 colon = system: SW-620 colon
T-47D breast = system: T-47D breast
U251 CNS = system: U251 CNS
UACC-257 melanoma = system: UACC-257 melanoma
UACC-62 melanoma = system: UACC-62 melanoma
UO-31 renal = system: UO-31 renal

For `Nc1nc(N)c(N=Nc2ccccc2)c(-c2ccccc2)n1`, the GI50 (786-0 renal) was 5.98 µM, the TGI (786-0 renal) was 19.4 µM and the GI50 (A498 renal) was 2.07 µM. The TGI (A498 renal) was 11.4 µM, the GI50 (A549 NSCLC) was 6.85 µM and the TGI (A549 NSCLC) was 22.8 µM. It also gave a GI50 (ACHN renal) of 4.49 µM, a TGI (ACHN renal) of 19 µM and a GI50 (CAKI-1 renal) of 3.57 µM. It also gave a TGI (CAKI-1 renal) of 23.5 µM, a GI50 (CCRF-CEM leukemia) of 8.14 µM and a TGI (CCRF-CEM leukemia) of over 100 µM. The GI50 (COLO 205 colon) was 9.29 µM, the TGI (COLO 205 colon) was 25.8 µM and the GI50 (DU-145 prostate) was 9.9 µM. It also gave a TGI (DU-145 prostate) of 34.1 µM, a GI50 (EKVX NSCLC) of 3.75 µM and a TGI (EKVX NSCLC) of 30.8 µM. The GI50 (HCC-2998 colon) was 14.3 µM, the TGI (HCC-2998 colon) was over 100 µM and the GI50 (HCT-116 colon) was 5.12 µM. The TGI (HCT-116 colon) was 18.3 µM, the GI50 (HCT-15 colon) was 5.95 µM and the TGI (HCT-15 colon) was 39.9 µM. For the same molecule, the GI50 (HL-60(TB) leukemia) was 11.1 µM, the TGI (HL-60(TB) leukemia) was over 100 µM and the GI50 (HOP-62 NSCLC) was 4.25 µM. It also gave a TGI (HOP-62 NSCLC) of 19.2 µM, a GI50 (HOP-92 NSCLC) of 1.45 µM and a TGI (HOP-92 NSCLC) of 9.95 µM. The GI50 (HS 578T breast) was 1.66 µM, the TGI (HS 578T breast) was 6.88 µM and the GI50 (IGROV1 ovarian) was 2.01 µM. For the same molecule, the TGI (IGROV1 ovarian) was 22.2 µM, the GI50 (K-562 leukemia) was 10.3 µM and the TGI (K-562 leukemia) was over 100 µM. It also gave a GI50 (KM12 colon) of 2.89 µM, a TGI (KM12 colon) of 14.5 µM and a GI50 (LOX IMVI melanoma) of 11 µM. For the same molecule, the TGI (LOX IMVI melanoma) was 23.5 µM, the GI50 (M14 melanoma) was 12 µM and the TGI (M14 melanoma) was 34.6 µM. For the same molecule, the GI50 (MALME-3M melanoma) was 4.33 µM, the TGI (MALME-3M melanoma) was 24.9 µM and the GI50 (MCF7 breast) was 0.362 µM. It also gave a TGI (MCF7 breast) of 18.1 µM, a GI50 (MDA-MB-231 breast) of 5.84 µM and a TGI (MDA-MB-231 breast) of 30.5 µM. The GI50 (MDA-MB-435) was 11.5 µM, the TGI (MDA-MB-435) was 29.5 µM and the GI50 (MOLT-4 leukemia) was 3.68 µM. The TGI (MOLT-4 leukemia) was 68.7 µM, the GI50 (NCI-H226 lung) was 4.19 µM and the TGI (NCI-H226 lung) was 19.4 µM. The GI50 (NCI-H23 lung) was 10.4 µM, the TGI (NCI-H23 lung) was 31.4 µM and the GI50 (NCI-H460 lung) was 4.16 µM. It also gave a TGI (NCI-H460 lung) of 17.8 µM, a GI50 (NCI/ADR-RES ovarian) of 9.53 µM and a TGI (NCI/ADR-RES ovarian) of 53.1 µM. It also gave a GI50 (OVCAR-3 ovarian) of 10.4 µM, a TGI (OVCAR-3 ovarian) of 23 µM and a GI50 (OVCAR-4 ovarian) of 4.03 µM. The TGI (OVCAR-4 ovarian) was 20.7 µM, the GI50 (OVCAR-5 ovarian) was 6.47 µM and the TGI (OVCAR-5 ovarian) was 23.8 µM. It also gave a GI50 (OVCAR-8 ovarian) of 11.1 µM, a TGI (OVCAR-8 ovarian) of 37.4 µM and a GI50 (PC-3 prostate) of 3.02 µM. It also gave a TGI (PC-3 prostate) of 20.8 µM, a GI50 (RPMI-8226 leukemia) of 7.98 µM and a TGI (RPMI-8226 leukemia) of 46 µM. For the same molecule, the GI50 (RXF 393 renal) was 3.42 µM, the TGI (RXF 393 renal) was 15.4 µM and the GI50 (SF-268 CNS) was 5.86 µM. For the same molecule, the TGI (SF-268 CNS) was 66.8 µM, the GI50 (SF-295 CNS) was 3.18 µM and the TGI (SF-295 CNS) was 18.6 µM. For the same molecule, the GI50 (SF-539 CNS) was 6.39 µM, the TGI (SF-539 CNS) was 21.1 µM and the GI50 (SK-MEL-28 melanoma) was 11.3 µM. The TGI (SK-MEL-28 melanoma) was 28.2 µM, the GI50 (SK-MEL-5 melanoma) was 3.74 µM and the TGI (SK-MEL-5 melanoma) was 20.3 µM. For the same molecule, the GI50 (SK-OV-3 ovarian) was 4.4 µM, the TGI (SK-OV-3 ovarian) was 17.5 µM and the GI50 (SNB-19 CNS) was 12.5 µM. The TGI (SNB-19 CNS) was 43.3 µM, the GI50 (SNB-75 CNS) was 1.41 µM and the TGI (SNB-75 CNS) was 7.8 µM. The GI50 (SR leukemia) was 4.54 µM, the TGI (SR leukemia) was 73.3 µM and the GI50 (SW-620 colon) was 12.8 µM. The TGI (SW-620 colon) was 27.2 µM, the GI50 (T-47D breast) was 0.487 µM and the TGI (T-47D breast) was 6.91 µM. It also gave a GI50 (U251 CNS) of 8.27 µM, a TGI (U251 CNS) of 26.8 µM and a GI50 (UACC-257 melanoma) of 13.7 µM. It also gave a TGI (UACC-257 melanoma) of 35.9 µM, a GI50 (UACC-62 melanoma) of 4.33 µM and a TGI (UACC-62 melanoma) of 20.1 µM. For the same molecule, the GI50 (UO-31 renal) was 2.54 µM and the TGI (UO-31 renal) was 24.7 µM.
